# Assay results as given in US7741346B2, “Angiogenesis inhibitor” (Santen Pharmaceutical Co., Ltd., priority 2001, dated 2010).
# How the values were obtained:
# [1] = tested on: normal human umbilical vein endotherial cells (HUVEC); test: VEGF-induced HUVEC proliferation (in vitro angiogenesis inhibition test); format: cell-based; conditions: 10 μM test compound, 10 ng/ml VEGF, three days after adding VEGF, WST-8 absorbance at 450 nm; for Inhibitory rate (%) (cell growth inhibitory rate to the control): 10 µM; for inhibition at 10 µM: Homo sapiens, HUVEC, 72 h, read-out: Inhibitory rate (%) (cell growth inhibitory rate to the control)
# Description: (1) Angiogenesis Inhibition Tests Using Human Endothelial Cells
# The effects of the present compounds on the in vitro angiogenesis were evaluated by using vascular endothelial growth factor (VEGF)-induced normal human umbilical vein endotherial cells (HUVEC) proliferation system (Cancer Res., 59, 99-106 (1999)), wherein inhibitory effects of drugs on cell growth reactions induced by treating HUVEC with VEGF as an in vitro angiogenesis evaluation model.
# The present compound was dissolved in DMSO and then diluted with a medium to prepare 40 μM test compound solution.
# 2×10^3 cells/well of HUVEC was seeded onto a type I collagen coated 96-well plate. After one day, 25 μl of the 40 μM test compound solution and a 0.8% DMSO solution as a control were added to each well (final concentration; 10 μM of the test compound and 0.2% of DMSO). One hour after adding the test compound, 25 μl of 40 ng/ml VEGF solution was added to each well(final concentration; 10 ng/ml of VEGF). Three days after adding VEGF, a WST-8 assay reagent (manufactured by Dojin Chemical Co., Ltd.) was added to each well in an amount of 10 μl, and absorbance at 450 nm was measured.
# Calculating cell growth inhibitory rates (%) to the control, angiogenesis inhibitory rates of almost all of the test compounds were 80% or higher.
melting point,SMILES,Inhibitory rate (%) (cell growth inhibitory rate to the control) [1],inhibition at 10 µM [1]
107.5 to 109 °C,"O=C(NCCCc1ccncc1)N(CCC(F)(F)F)CCC12CC3CC(CC(C3)C1)C2 [Compound No. 1-24, 1-[2-(1-Adamantyl)ethyl]-3-[3-(4-pyridyl)propyl]-1-(3,3,3-trifluoropropyl)urea]",–,82.1%
–,"CCCCCN(CCC12CC3CC(CC(C3)C1)C2)C(=O)NCC(C)Cc1ccncc1 (stereo not shown) [Compound No. 1-100, 1-[2-(1-Adamantyl)ethyl]-3-[2-methyl-3-(4-pyridyl)propyl]-1-pentylurea]",83.0%,–
–,"CCCCCN(CCC12CC3CC(CC(C3)C1)C2)C(=O)CSCCc1ccncc1 [Compound No. 2-18, 2-[2-(4-Pyridyl)ethylthio]acetic acid N-[2-(1-adamantyl)ethyl]-N-pentylamide]",–,82.2%
–,"CCCCCN(CCC12CC3CC(CC(C3)C1)C2)C(=O)NC/C=C\c1ccncc1 [Compound No. 1-111, (Z)-1-[2-(1-Adamantyl)ethyl]-1-pentyl-3-[3-(4-pyridyl)-2-propenyl]urea]",–,83.1%
–,"CCCCCN(CCC1CCCCC1)C(=O)NCC(C)Cc1ccncc1 (stereo not shown) [Compound No. 1-118, 1-(2-Cyclohexylethyl)-3-[2-methyl-3-(4-pyridyl)propyl]-1-pentylurea]",–,81.6%
–,"CCCCCN(CCC12CC3CC(CC(C3)C1)C2)C(=O)NCC(C)Cc1ccncc1 (single isomer, unassigned; (-)) [Compound No. 1-120, (−)-1-[2-(1-Adamantyl)ethyl]-3-[2-methyl-3-(4-pyridyl)propyl]-1-pentylurea]",–,83.1%
–,"CCCCCN(CCC12CC3CC(CC(C3)C1)C2)C(=O)CCCCc1ccncc1 [Compound No. 2-14, 5-(4-Pyridyl)valeric acid N-[2-(1-adamantyl)ethyl]-N-pentylamide]",–,83.4%
89.5 to 93.5 °C,"CC=CCN(CCC12CC3CC(CC(C3)C1)C2)C(=O)NCCCc1ccncc1 [Compound No. 1-25, 1-[2-(1-Adamantyl)ethyl]-1-(2-butenyl)-3-[3-(4-pyridyl)propyl]urea]",–,83.2%
–,CC(CNC(=O)N(CCN(C)C(=O)OC(C)(C)C)CCC12CC3CC(CC(C3)C1)C2)Cc1ccncc1 (stereo not shown) [Compound No. 1-107],–,83.2%
90 to 118 °C,"CCCCCN(CCC12CC3CC(CC(C3)C1)C2)C(=O)NC/C=C/c1ccncc1 [Compound No. 1-112, (E)-1-[2-(1-Adamantyl)ethyl]-1-pentyl-3-[3-(4-pyridyl)-2-propenyl]urea]",–,83.2%
128.5 to 129 °C,"CCCCCN(CCC12CC3CC(CC(C3)C1)C2)C(=O)NC(C)CCc1ccncc1 (stereo not shown) [Compound No. 1-137, 1-[2-(1-Adamantyl)ethyl]-3-[1-methyl-3-(4-pyridyl)propyl]-1-pentylurea]",–,83.3%
–,"CCCCCN(CCC12CC3CC(CC(C3)C1)C2)C(=O)CCSCc1ccncc1 [Compound No. 2-15, 3-(4-Pyridylmethylthio)propionic acid N-[2-(1-adamantyl)ethyl]-N-pentylamide]",–,83.3%
–,"CN(CCN(CCC12CC3CC(CC(C3)C1)C2)C(=O)NCCCc1ccncc1)C(=O)OC(C)(C)C [Compound No. 1-26, 1-[2-(1-Adamantyl)ethyl]-[2-[N-(t-butoxycarbonyl)-N-methylamino]ethyl]-3-[3-(4-pyridyl)propyl]urea]",–,79.2%

SMILES,melting point,Inhibitory rate (%) (cell growth inhibitory rate to the control) [1],inhibition at 10 µM [1]
"CC(CNC(=O)N(CCN(C)C(=O)OC(C)(C)C)CCC12CC3CC(CC(C3)C1)C2)Cc1ccncc1 (single isomer, unassigned; (+)) [Compound No. 1-139, (+)-1-[2-(1-Adamantyl)ethyl]-1-[2-[N-(t-butoxycarbonyl)-N-methylamino]ethyl]-3-[2-methyl-3-(4-pyridyl)propyl]urea]",122.7 to 123.7 °C,83.1%,–
